Measurements from US20230365592A1 (Agios Pharmaceuticals, Inc., priority 2022, published 2023).

Molecular target: T1, human PAH with the R408W mutation (Homo sapiens, UniProt P00439, R408W)
T1 construct: expressed in transfected cells
T1 sequence (P00439 1-452 R408W): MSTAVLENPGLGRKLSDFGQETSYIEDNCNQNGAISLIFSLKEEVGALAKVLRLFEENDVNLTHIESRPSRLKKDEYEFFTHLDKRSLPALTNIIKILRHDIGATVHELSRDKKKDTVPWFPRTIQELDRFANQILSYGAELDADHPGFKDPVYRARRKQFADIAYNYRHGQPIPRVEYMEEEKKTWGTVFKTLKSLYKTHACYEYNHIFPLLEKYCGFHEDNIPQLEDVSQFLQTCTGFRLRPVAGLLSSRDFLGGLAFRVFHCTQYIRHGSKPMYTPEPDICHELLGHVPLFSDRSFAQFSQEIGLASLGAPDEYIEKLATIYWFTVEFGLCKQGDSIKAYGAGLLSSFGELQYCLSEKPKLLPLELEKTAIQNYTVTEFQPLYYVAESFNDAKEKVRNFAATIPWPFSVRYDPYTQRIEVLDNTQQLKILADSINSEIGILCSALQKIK
Experiment: Cell Based Phenylalanine Flux Assay;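 also: after compound treatment, cells received sepiapterin plus isotope-labelled Phenylalanine for 4 hours, then labelled Tyrosine in the medium was quantified, 10-point 2-fold dilution series run in duplicate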
Details: A375 cells expressing R408W PAH; 24 hrs with compound, then 20 µM sepiapterin and 800 µM 13C9,15N-Phenylalanine for 4 hours; 13C-Tyrosine by LC-MS; average where tested multiple times; read-out: AC50

AC50 [nM] | Compound
1000 to 5000 | CC(C)(O)c1ncc(C(=O)N2CCc3[nH]cnc3C2c2cc3ccccn3n2)o1 (stereo not drawn)
1000 to 5000 | Fc1ncccc1-c1nnc(N2CCc3[nH]cnc3C2c2cc3ccccn3n2)o1 (stereo not drawn)
1000 to 5000 | Cn1nc(C(F)F)nc1C(=O)N1CCc2[nH]cnc2C1c1cc2cc(F)ccn2n1 (stereo not drawn)
> 5000 | Cn1nc(N)cc1C(=O)N1CCc2[nH]cnc2C1c1cc2ccccn2n1 (stereo not drawn)
1000 to 5000 | Cn1ccc(-c2nnc(C(=O)N3CCc4[nH]cnc4C3c3cc4cc(F)ccn4n3)o2)n1 (stereo not drawn)
1000 to 5000 | COc1cccn2nc([C@@H]3c4nc[nH]c4CCN3c3nnc(C4CC4)o3)cc12 (single isomer, unassigned)
> 5000 | Nc1cnc(N2CCc3[nH]cnc3C2c2cc3ccccn3n2)nc1 (stereo not drawn)
> 5000 | FC(F)(F)c1cccn2nc(C3c4nc[nH]c4CCN3c3nc4ccccc4o3)cc12 (stereo not drawn)

Compound | AC50 [nM]
Cc1nnc(C(=O)N2CCc3[nH]cnc3[C@H]2c2cc3ccc(F)cn3n2)o1 (single isomer, unassigned) | 1000 to 5000

Same assay, conditions: A375 cells expressing human PAH R408W; 24 hrs compound incubation; 13C-Tyrosine by LC-MS; average where tested multiple times; read-out: AC50

AC50 [nM] | Compound
< 500 | CC(C)(C)c1nnc(C(=O)N2CCc3[nH]cnc3[C@H]2c2cc3c(C4CC4)cccn3n2)o1 [Example 1840, (S)-(5-(tert-butyl)-1,3,4-oxadiazol-2-yl)(4-(4-cyclopropylpyrazolo[1,5-a]pyridin-2-yl)-1,4,6,7-tetrahydro-5H-imidazo[4,5-c]pyridin-5-yl)methanone]
> 5000 | FC(F)c1cccn2nc([C@H]3c4nc[nH]c4CCN3c3ccc(C(F)(F)F)cn3)cc12 [Example 1917, (R)-4-(4-(difluoromethyl)pyrazolo[1,5-a]pyridin-2-yl)-5-(5-(trifluoromethyl)pyridin-2-yl)-4,5,6,7-tetrahydro-1H-imidazo[4,5-c]pyridine]
> 5000 | Cc1cccnc1-c1nnc(N2CCc3[nH]cnc3[C@@H]2c2cc3c(C)cccn3n2)o1 [Example 2268, (R)-2-(4-(4-methylpyrazolo[1,5-a]pyridin-2-yl)-1,4,6,7-tetrahydro-5H-imidazo[4,5-c]pyridin-5-yl)-5-(3-methylpyridin-2-yl)-1,3,4-oxadiazole]
> 5000 | Cc1cccn2nc([C@H]3c4nc[nH]c4CCN3C(=O)c3nnc(-c4cncnc4)o3)cc12 [Example 1973, (R)-(4-(4-methylpyrazolo[1,5-a]pyridin-2-yl)-1,4,6,7-tetrahydro-5H-imidazo[4,5-c]pyridin-5-yl)(5-(pyrimidin-5-yl)-1,3,4-oxadiazol-2-yl)methanone]
500 to 1000 | O=C(c1nc2ccccc2o1)N1CCc2[nH]cnc2[C@H]1c1cc2ccccn2n1 [Example 2048, (S)-benzo[d]oxazol-2-yl(4-(pyrazolo[1,5-a]pyridin-2-yl)-1,4,6,7-tetrahydro-5H-imidazo[4,5-c]pyridin-5-yl)methanone]
> 5000 | FC(F)(F)c1nnc(N2CCc3[nH]cnc3[C@@H]2c2cc3c(C(F)(F)F)cccn3n2)o1 [Example 1820, (R)-2-(trifluoromethyl)-5-(4-(4-(trifluoromethyl)pyrazolo[1,5-a]pyridin-2-yl)-6,7-dihydro-1H-imidazo[4,5-c]pyridin-5(4H)-yl)-1,3,4-oxadiazole]
> 5000 | Cc1cc(-c2nnc(C(=O)N3CCc4[nH]cnc4[C@@H]3c3cc4c(F)cccn4n3)o2)n[nH]1 [Example 2294, (R)-(4-(4-fluoropyrazolo[1,5-a]pyridin-2-yl)-1,4,6,7-tetrahydro-5H-imidazo[4,5-c]pyridin-5-yl)(5-(5-methyl-1H-pyrazol-3-yl)-1,3,4-oxadiazol-2-yl)methanone]
< 500 | Fc1cccc(F)c1-c1nnc(N2CCc3[nH]cnc3[C@H]2c2cc3cccc(C(F)(F)F)n3n2)o1 [Example 2133, (S)-2-(2,6-difluorophenyl)-5-(4-(7-(trifluoromethyl)pyrazolo[1,5-a]pyridin-2-yl)-1,4,6,7-tetrahydro-5H-imidazo[4,5-c]pyridin-5-yl)-1,3,4-oxadiazole]
> 5000 | Cn1cc(-c2nnc(C(=O)N3CCc4[nH]cnc4[C@@H]3c3cc4c(Br)cccn4n3)o2)cn1 [Example 1869, (R)-(4-(4-bromopyrazolo[1,5-a]pyridin-2-yl)-1,4,6,7-tetrahydro-5H-imidazo[4,5-c]pyridin-5-yl)(5-(1-methyl-1H-pyrazol-4-yl)-1,3,4-oxadiazol-2-yl)methanone]
> 5000 | Fc1cccc(F)c1-c1nnc(N2CCc3[nH]cnc3[C@@H]2c2cc3ccccn3n2)o1 (single isomer, unassigned) [Example 1842]
1000 to 5000 | CC(F)(F)c1nnc(N2CCc3[nH]cnc3[C@H]2c2cc3cccc(Cl)n3n2)o1 [Example 2327, (S)-2-(4-(7-chloropyrazolo[1,5-a]pyridin-2-yl)-1,4,6,7-tetrahydro-5H-imidazo[4,5-c]pyridin-5-yl)-5-(1,1-difluoroethyl)-1,3,4-oxadiazole]
1000 to 5000 | Cc1cccn2nc([C@H]3c4nc[nH]c4CCN3c3cnccn3)cc12 [Example 1804, (R)-4-(4-methylpyrazolo[1,5-a]pyridin-2-yl)-5-(pyrazin-2-yl)-4,5,6,7-tetrahydro-1H-imidazo[4,5-c]pyridine]
500 to 1000 | O=C(c1cnc(-c2ccccn2)o1)N1CCc2[nH]cnc2[C@H]1c1cc2c(C(F)F)cccn2n1 [Example 2034, (S)-(4-(4-(difluoromethyl)pyrazolo[1,5-a]pyridin-2-yl)-1,4,6,7-tetrahydro-5H-imidazo[4,5-c]pyridin-5-yl)(2-(pyridin-2-yl)oxazol-5-yl)methanone]

Same assay, conditions: A375 cells expressing human R408W PAH; 24 hrs compound incubation; 13C-Tyrosine by LC-MS; average where tested multiple times; read-out: AC50

AC50 [nM] | Compound
> 5000 | Cc1cccn2nc([C@H]3c4nc[nH]c4CCN3C(=O)c3nnc(C(C)C)o3)cc12 [Example 1451, (R)-(5-isopropyl-1,3,4-oxadiazol-2-yl)(4-(4-methylpyrazolo[1,5-a]pyridin-2-yl)-6,7-dihydro-1H-imidazo[4,5-c]pyridin-5(4H)-yl)methanone]
500 to 1000 | Cn1cc(-c2nnc(C(=O)N3CCc4[nH]cnc4[C@H]3c3cc4cccc(C(F)(F)F)n4n3)o2)cn1 [Example 952, (S)-(5-(1-methyl-1H-pyrazol-4-yl)-1,3,4-oxadiazol-2-yl)(4-(7-(trifluoromethyl)pyrazolo[1,5-a]pyridin-2-yl)-6,7-dihydro-1H-imidazo[4,5-c]pyridin-5(4H)-yl)methanone]
1000 to 5000 | O=C(c1cnn2cc(C3CC3)ccc12)N1CCc2[nH]cnc2[C@@H]1c1cc2c(Cl)cccn2n1 [Example 1769, (R)-(4-(4-chloropyrazolo[1,5-a]pyridin-2-yl)-6,7-dihydro-1H-imidazo[4,5-c]pyridin-5(4H)-yl)(6-cyclopropylpyrazolo[1,5-a]pyridin-3-yl)methanone]
1000 to 5000 | O=C(c1nnc(-c2cnccn2)o1)N1CCc2[nH]cnc2[C@@H]1c1cc2cccc(Cl)n2n1 [Example 978, (R)-(4-(7-chloropyrazolo[1,5-a]pyridin-2-yl)-6,7-dihydro-1H-imidazo[4,5-c]pyridin-5(4H)-yl)(5-(pyrazin-2-yl)-1,3,4-oxadiazol-2-yl)methanone]
< 500 | Cc1nc(C(C)(C)F)oc1C(=O)N1CCc2[nH]cnc2[C@@H]1c1cc2c(F)cccn2n1 [Example 1274, (R)-(2-(2-fluoropropan-2-yl)-4-methyloxazol-5-yl)(4-(4-fluoropyrazolo[1,5-a]pyridin-2-yl)-6,7-dihydro-1H-imidazo[4,5-c]pyridin-5(4H)-yl)methanone]
500 to 1000 | C[C@H](O)c1nc(C(F)F)c(C(=O)N2CCc3[nH]cnc3[C@@H]2c2cc3cccc(C(F)(F)F)n3n2)o1 [Example 1201, (4-(difluoromethyl)-2-((S)-1-hydroxyethyl)oxazol-5-yl)((R)-4-(7-(trifluoromethyl)pyrazolo[1,5-a]pyridin-2-yl)-6,7-dihydro-1H-imidazo[4,5-c]pyridin-5(4H)-yl)methanone]
1000 to 5000 | O=C(c1nnc(-c2ncccc2F)o1)N1CCc2[nH]cnc2[C@@H]1c1cc2c(Cl)cccn2n1 [Example 1294, (R)-(4-(4-chloropyrazolo[1,5-a]pyridin-2-yl)-6,7-dihydro-1H-imidazo[4,5-c]pyridin-5(4H)-yl)(5-(3-fluoropyridin-2-yl)-1,3,4-oxadiazol-2-yl)methanone]
< 500 | Cc1cccn2nc([C@@H]3c4nc[nH]c4CCN3C(=O)c3nnc(C(C)C)o3)cc12 [Example 1450, (S)-(5-isopropyl-1,3,4-oxadiazol-2-yl)(4-(4-methylpyrazolo[1,5-a]pyridin-2-yl)-6,7-dihydro-1H-imidazo[4,5-c]pyridin-5(4H)-yl)methanone]
1000 to 5000 | c1ccc(-c2nnc(N3CCc4[nH]cnc4[C@@H]3c3cc4ccccn4n3)o2)nc1 [Example 1290, (R)-2-(4-(pyrazolo[1,5-a]pyridin-2-yl)-6,7-dihydro-1H-imidazo[4,5-c]pyridin-5(4H)-yl)-5-(pyridin-2-yl)-1,3,4-oxadiazole]
500 to 1000 | CC(C)(O)c1nc(Cl)c(C(=O)N2CCc3[nH]cnc3[C@H]2c2cc3ccccn3n2)o1 [Example 990, (S)-(4-chloro-2-(2-hydroxypropan-2-yl)oxazol-5-yl)(4-(pyrazolo[1,5-a]pyridin-2-yl)-6,7-dihydro-1H-imidazo[4,5-c]pyridin-5(4H)-yl)methanone]
< 500 | CC1(c2nnc(C(=O)N3CCc4[nH]cnc4[C@H]3c3cc4cccc(Cl)n4n3)o2)CC1 [Example 1296, (S)-(4-(7-chloropyrazolo[1,5-a]pyridin-2-yl)-6,7-dihydro-1H-imidazo[4,5-c]pyridin-5(4H)-yl)(5-(1-methylcyclopropyl)-1,3,4-oxadiazol-2-yl)methanone]
